{C7NH2-Cpd13} = 6-amino-2-(hydroxymethyl)hexyl phosphate carrying Compound 13; {C6NH2-Cpd13} = 6-aminohexyl phosphate carrying Compound 13; {AmHex} = 6-amino-2-(hydroxymethyl)hexyl phosphate
Columns and labels:
HIV-1 protease [1] = biological target: T1, HIV-1 protease (Human immunodeficiency virus type 1 group M subtype B, UniProt P04585); assay: ssHIV1 probe assay, HIV-1 protease bound to immobilized polyclonal antibody, qPCR; format: binding
T1 construct: made in house

HIV-1 protease [2] = biological target: T1, HIV-1 protease; assay: HIV-1 protease enzyme kinetics with chromogenic peptide substrate; format: biochemical
HIV-1 protease [3] = biological target: T1, HIV-1 protease; assay: ssHIV1 probe assay, HIV-1 protease directly adsorbed on solid carrier, qPCR; format: binding; conditions: pH 6.0
Avi-PSMA [4] = biological target: T2, Avi-PSMA (Homo sapiens, UniProt Q04609); assay: Enzyme kinetics of Avi-PSMA (HPLC, cleavage of pteroyl-bis-L-glutamate); format: biochemical
T2 construct: Biotinylated extracellular portion of PSMA (hereinafter called Avi-PSMA) used in the enzyme assay; made in house
T2 sequence (Q04609 44-750 limits assumed): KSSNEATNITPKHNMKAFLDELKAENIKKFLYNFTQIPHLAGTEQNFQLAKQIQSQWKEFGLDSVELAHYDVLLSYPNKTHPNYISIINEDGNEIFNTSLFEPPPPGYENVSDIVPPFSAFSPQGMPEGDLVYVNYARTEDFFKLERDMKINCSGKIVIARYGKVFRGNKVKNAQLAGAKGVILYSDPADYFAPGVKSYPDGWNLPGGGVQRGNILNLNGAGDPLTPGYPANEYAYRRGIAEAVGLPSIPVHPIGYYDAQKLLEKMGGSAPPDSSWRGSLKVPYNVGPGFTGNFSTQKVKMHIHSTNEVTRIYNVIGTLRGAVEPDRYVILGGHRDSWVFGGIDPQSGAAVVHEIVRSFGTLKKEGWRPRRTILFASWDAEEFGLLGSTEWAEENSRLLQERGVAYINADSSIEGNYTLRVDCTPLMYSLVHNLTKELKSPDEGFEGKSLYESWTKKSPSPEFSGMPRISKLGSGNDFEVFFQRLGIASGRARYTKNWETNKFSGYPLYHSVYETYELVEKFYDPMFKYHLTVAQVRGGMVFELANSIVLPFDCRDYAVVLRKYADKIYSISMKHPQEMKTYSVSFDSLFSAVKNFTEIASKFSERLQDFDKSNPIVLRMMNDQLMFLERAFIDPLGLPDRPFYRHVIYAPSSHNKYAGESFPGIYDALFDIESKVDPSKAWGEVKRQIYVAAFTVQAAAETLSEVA

CA-IX = CA-IX (Homo sapiens, UniProt Q16790, N346D); assay: Reference enzyme kinetics of CA-IX (construct without PG domain)
[5] = biological target: T3, CA-IX contained in a cell lysate of line HT-29 (Homo sapiens, UniProt Q16790); assay: Bivalent ssCAbis probe assay, CA-IX from HT-29 cell lysate on M75 antibody, qPCR; format: binding
T3 construct: unpurified endogenous CA-IX contained in a cell lysate or in microliter volumes of serum; endogenous in cells; host or cells: HT-29
Method: (§1) Following the procedure described in the preceding examples, approximately 80 pg of CA-IX contained in a cell lysate of line HT-29 (used amount of total protein determined by Bradford assay was 1 μg) was immobilized using the M75 antibody.

Avi-PSMA [6] = biological target: T2, Avi-PSMA; assay: PSMA catalytic activity for substrate hydrolysis by dsA3PSMA probe displacement, qPCR; format: biochemical; conditions: for substrate cleaved during incubation: 40 minutes
Method: Following the procedure described in section 1i, 20 pg of Avi-PSMA was immobilized to the bottom of the wells via immobilized neutravidin and subsequently incubated with the dsA3PSMA detection probe at a concentration of 35 pmol·l^−1 and simultaneously with various concentrations of the folyl-γ-L-glutamate substrate in the range of 10 nmol·l^−1 to 100 μmol·l^−1 for 40 minutes, and after washing, the amount of bound probe was determined with qPCR. […] At a concentration of 336 nmol·l^−1, 43% was cleaved, corresponding to kcat of 2.3 s^−1 and at a concentration of 1049 nmol·l^−1, 16% was cleaved, corresponding to kcat of 2.6 s^−1. Obtained kcat values are in conformity with the kcat value of 5 s^−1 obtained from enzyme kinetics as described in Section 1c.

CA-IX from blood serum = biological target: T4, CA-IX from blood serum (Homo sapiens, UniProt Q16790); assay: Bivalent ssCAbis probe assay, CA-IX from blood serum on M75 antibody, qPCR; format: binding; conditions: CA-IX from 1 μl of blood serum
T4 construct: unpurified endogenous CA-IX contained in a cell lysate or in microliter volumes of serum; from tissue; host or cells: human blood serum
Method: as §1

[7] = first independent experiment, read-out: Ki (1)
[8] = second independent experiment, read-out: Ki (2)
[9] = initial concentration 107 nmol·l^−1
[10] = initial concentration 336 nmol·l^−1
[11] = initial concentration 1049 nmol·l^−1

| Compound | Ki (HIV-1 protease [1]) [nM] | Ki (HIV-1 protease [2]) [nM] | Ki (HIV-1 protease [3]; [7]) [nM] | Ki (HIV-1 protease [3]; [8]) [nM] | other results |
| --- | --- | --- | --- | --- | --- |
| COC(=O)N[C@H](C(=O)N[C@@H](Cc1ccccc1)[C@@H](O)CN(Cc1ccc(-c2ccccn2)cc1)NC(=O)[C@@H](NC(=O)OC)C(C)(C)C)C(C)(C)C [atazanavir] | 1.4 | 0.024 | 0.11 | 0.18 |  |
| iqPCR_amino: single-stranded DNA (SEQ ID NO: 1) with 3′-terminal 6-amino-2-(hydroxymethyl)hexyl phosphate modification, no ligand portion (DNA CCTGCCAGTTGAGCATTTTTATCTGCCACCTTCTCCACCAGACAAAAGCTGGAAA; DNA, 3' {AmHex}, backbone not given here) |  |  |  |  | inhibition at the highest concentration used (Avi-PSMA [4]; 0.5 μmol·l^−1): no inhibition observed; binding to immobilized HIV-1 protease (HIV-1 protease [1]; 100 ng of HIV-1 protease): no binding was observed |
| Cc1cccc(C)c1OCC(=O)N[C@@H](Cc1ccccc1)[C@@H](O)C[C@H](Cc1ccccc1)NC(=O)[C@H](C(C)C)N1CCCNC1=O [lopinavir] | 1.3 | 0.018 | 0.18 | 0.41 |  |
| NS(=O)(=O)c1ccc(NC(=O)Nc2ccc(OCCCCNC(=O)CCOCCOCCOCCOCCOCCC(=O)ON3C(=O)CCC3=O)cc2)cc1 [Compound 13, 2,5-dioxopyrrolidin-1-yl 19-oxo-24-(4-(3-(4-sulfamoylphenyl)ureido)phenoxy)-4,7,10,13,16-pentaoxa-20-azatetracosan-1-oate] |  |  |  |  | Ki (CA-IX): ~400 nM |
| NCCOCCOCCOCCOCCOCCC(=O)NCCCCOc1ccc(NC(=O)Nc2ccc(S(N)(=O)=O)cc2)cc1 [Compound 14, 18-oxo-23-(4-(3-(4-sulfamoylphenyl)ureido)phenoxy)-3,6,9,12,15-pentaoxa-19-azatri-cosan-1-aminium 2,2,2-trifluoroacetate] |  |  |  |  | Ki ([5]; ssCAbis probe, determined in the same way as Table 15, read-out: inhibitory constant): 300 nM |
| CCC[C@@]1(CCc2ccccc2)CC(O)=C([C@H](CC)c2cccc(NS(=O)(=O)c3ccc(C(F)(F)F)cn3)c2)C(=O)O1 [tipranavir] | 14 | 0.14 | 1.3 | 2.9 |  |
| NCCCC[C@H](NC(=O)N[C@@H](CCC(=O)O)C(=O)O)C(=O)O [PSMA parent compound, S,S-2-[3-[5-amino-1-carboxypentyl]-ureido]-pentanedioic acid] |  |  |  |  | Ki (Avi-PSMA [4]; Avi-PSMA enzyme assay): 0.2 nM |
| CC(C)[C@H](NC(=O)CCOCCOCCOCCOCCOCCC(=O)NCCO)C(=O)N[C@@H](Cc1ccccc1)C[C@H](O)[C@H](Cc1ccccc1)NC(=O)OCc1cncs1 [Compound 8, thiazol-5-ylmethyl ((24S,27S,29S,30S)-27-benzyl-1,29-dihydroxy-24-isopropyl-4,22,25-trioxo-31-phenyl-7,10,13,16,19-pentaoxa-3,23,26-triazahentriacontan-30-yl)carbamate] |  | 2.3 |  |  |  |
| Nc1nc2ncc(CNc3ccc(C(=O)N[C@@H](CCC(=O)N[C@@H](CCC(=O)O)C(=O)O)C(=O)O)cc3)nc2c(=O)[nH]1 [folyl-γ-L-glutamate] |  |  |  |  | kcat from enzyme kinetics (Avi-PSMA [4]; as described in Section 1c): 5 s⁻¹; kcat (Avi-PSMA [6]; [9]): 1.2 s⁻¹; substrate cleaved during incubation (Avi-PSMA [6]; [9]): 80%; kcat (Avi-PSMA [6]; [10]): 2.3 s⁻¹; substrate cleaved during incubation (Avi-PSMA [6]; [10]): 43%; kcat (Avi-PSMA [6]; [11]): 2.6 s⁻¹; substrate cleaved during incubation (Avi-PSMA [6]; [11]): 16% |
| Cc1nc(COc2ccc(C[C@H](NC(=O)O[C@H]3CO[C@H]4OCC[C@H]43)[C@H](O)CN(CC(C)C)S(=O)(=O)c3ccc4c(c3)OCO4)cc2)cs1 [brecanavir] | 0.41 | 0.001 | 0.04 | 0.05 |  |
| O=C(O)CCC(NC(=O)NC(CCCCNC(=O)CCOCCC(=O)NCCO)C(=O)O)C(=O)O (centres unmarked) [Compound 4, 1-hydroxy-4,10,18-trioxo-7-oxa-3,11,17,19-tetraazadocosane-16,20,22-tricarboxylic acid] |  |  |  |  | Ki (Avi-PSMA [4]; Avi-PSMA, IC50 converted by Cheng-Prusoff, pH 7.4, 37° C.): 3.3 nM |
| ssCAbis: bivalent probe: two molecules of Compound 13 on oligonucleotide SEQ ID NO: 7 (DNA AAACCTGCCAGTTGAGCATTTTTATCTGCCACCTTCTCCACCAGACAAAAGCTGGAAA; 5' {C6NH2-Cpd13}, 3' {C7NH2-Cpd13}, sugars by position and backbone not given here) |  |  |  |  | Kd (CA-IX from blood serum): 2.2 nM; Kd ([5]; HT-29 lysate, HEPESTC′ buffer): 2.1 nM |
